{"source": "patent US20060019971A1", "about": "“Treatment of cardiovascular disease with inhibitors of p38 kinase” (priority 2003, published 2006)", "type_in_all_cases": "cell-based, human", "key": {"COX-2 mRNA in HPBMCs": {"system": "COX-2 mRNA in HPBMCs", "assay": "COX-2 gene expression in HPBMCs, real-time PCR", "conditions": "6 hours", "experimental": "5×10^6 HPBMCs were plated in 6-well. After 1 hour medium was removed and cells were treated with vehicle or 1 μM p38 inhibitor in RPMI 1640 medium. After 1 hour cells were stimulated with 10% FCS only or 10 μg/ml CRP plus 10% FCS. After 6 hours RNA was extracted from the cells and COX-2 gene expression level was determined by real-time PCR as described in the Experimental section.\nCryopreserved human peripheral blood monocytes (HPBMCs, from Biowitker, Walkersvill, Md.) were thawed and washed twice in RPMI 1640. Cells were plated in tissue culture plates and incubated in 5% CO2 at 37 C. After 1 hr media were removed and cells were treated with various treatments. After 2 to 20 hours conditioned media and/or cell lysates were collected for the analyses of secreted cytokines, protein or mRNA expression. […]\n(§1) RNA was extracted from the cells using Qiagen RNA extraction kit according to the manufacturer's instruction. The expression of pro-inflammatory genes IL-1β, IL-6, IL-8, TNFα, COX-2, ET-1, TF were assessed by real-time PCR. […]\n(§2) Real-time RT-PCR was performed in a two-step manner. cDNA synthesis and real-time detection were carried out in a PTC-100™ Thermal Cycler (MJ Research Inc, Waltham, Mass.) and an ABI Prism™ 7700 Sequence Detection System (Applied Biosystems, Foster City, Calif.), respectively. […] Relative quantitation of gene expression was performed using the relative standard curve method. […]"}, "TF protein in HPBMCs": {"system": "TF protein in HPBMCs", "assay": "Tissue Factor protein expression in HPBMCs, Western", "conditions": "1 μM SD, 16 hours", "experimental": "(§3) The figures illustrate the effects of CRP on TF protein and mRNA expression in HPBMCs and their modulation by p38 inhibitor. 1.5×10^6 HPBMCs were plated in 48-well. After 1 hour medium was removed and cells were incubated with or without 10 μg/ml of purified human CRP in serum-free RPMI 1640. In parallel experiments, cells were treated with 10% FCS together with the CRP treatment. For the p38 antagonism, p38 inhibitor was added to a final concentration of 1 μM in the parallel treatment. After 16 hours cells were lysed and TF protein level was determined by Western blot. TF signal was normalized by GAPDH signal. As shown in FIG. 7(c), after 6 hours TF mRNA level were determined by real-time PCR as described in the Experimental section.\nCryopreserved human peripheral blood monocytes (HPBMCs, from Biowitker, Walkersvill, Md.) were thawed and washed twice in RPMI 1640. Cells were plated in tissue culture plates and incubated in 5% CO2 at 37 C. After 1 hr media were removed and cells were treated with various treatments. After 2 to 20 hours conditioned media and/or cell lysates were collected for the analyses of secreted cytokines, protein or mRNA expression. 10 μg/ml of purified human CRP (Calbiochem, San Diego, Calif.) was used in most of the treatments. In some experiments fetal calf serum (FCS from ATCC) was added to a final concentration of 10% together with CRP. In the examples provided herein, including those assessing the effects of p38 antagonism, cells were pre-treated with SD, a p38 small molecule inhibitor (Compound 162 in Table A) for 1 hour prior to CRP treatment as described above. In a parallel series of experiments, the effect of vehicle (DMSO) was tested. […]\nHPBMCs were treated as described above (p38 MAP kinase activation). […] 10 μg total proteins were resolved on LDS-PAGE (In Vitrogen, Carlsbad, Calif.), and tissue factor protein expression was determined by Western using antibody against human tissue factor (American Diagnostica, Stamford, Conn.). […]"}, "TF mRNA in HPBMCs": {"system": "TF mRNA in HPBMCs", "assay": "Tissue Factor mRNA expression in HPBMCs, real-time PCR", "conditions": "1 μM SD, 6 hours", "experimental": "as §3, with “section. […]” for “section.”\nas §1, §2"}}, "note": "Entries after “also recorded” stand apart in the source; their conditions may differ.", "data": [{"smiles": "C[C@@H]1CN(Cc2ccc(F)cc2)[C@@H](C)CN1C(=O)c1cc2c(C(=O)C(=O)N(C)C)c[nH]c2cc1Cl", "note": "[Compound 162]", "values": [{"measurement": "inhibition of CRP-invoked COX-2 mRNA expression", "setting": "COX-2 mRNA in HPBMCs; 1 μM SD pre-treatment, listed as SD", "result": "almost completely blocked; also recorded: almost completely inhibited"}, {"measurement": "inhibition of FCS induced COX-2 mRNA", "setting": "COX-2 mRNA in HPBMCs; 1 μM SD", "result": "completely inhibited"}, {"measurement": "reduction of TF protein expression invoked by CRP plus FCS", "setting": "TF protein in HPBMCs", "result": "to control level"}, {"measurement": "reduction of TF protein expression invoked by FCS", "setting": "TF protein in HPBMCs", "result": "to control level"}, {"measurement": "reduction of TF protein expression invoked by CRP", "setting": "TF protein in HPBMCs; listed as SD", "result": "to control level; also recorded: blocked"}, {"measurement": "inhibition of basal TF mRNA expression", "setting": "TF mRNA in HPBMCs", "result": "almost completely inhibitied"}, {"measurement": "inhibition of CRP induced TF mRNA expression", "setting": "TF mRNA in HPBMCs; listed as SD", "result": "almost completely inhibitied; also recorded: blocked"}]}]}
